Among the data in ChEMBL document CHEMBL3751784, “Synthesis of novel 1-substituted triazole linked 1,2-benzothiazine 1,1-dioxido propenone derivatives as potent anti-inflammatory agents and inhibitors of monocyte-to-macrophage differentiation” (2015) are inhibition and viability values, retold here.

What is called inhibition is the percentage by which the read-out fell short of the control.

The source made the active and inactive calls. No cut-off for these calls is given here.

In experiment [1] the test system is THP-1. The experiment is described as follows: Inhibition of PMA-induced monocyte to macrophage differentiation in human THP1 cells assessed as reduction in lysosomal activity at 15 uM preincubated for 2 hrs followed by PMA addition measured after 48 hrs by lysotracker dye-based fluorescence microscopic analysis. In kind it is functional, cell-based.
Experiment [2] in a line: (§1) Antiinflammatory activity in human THP1 cells assessed as inhibition of PMA-induced MCP-1 secretion at 10 uM preincubated for 2 hrs followed by PMA addition measured after 48 hrs by ELISA. The experiment is classed as functional. The following applies: THP-1. (An ELISA detects its analyte on a solid surface through an enzyme-linked reagent.)
Experiment [3] deals with THP-1. The experiment is described as follows: Inhibition of PMA-induced monocyte to macrophage differentiation in human THP1 cells assessed as reduction in MMP9 enzyme activity at 15 uM preincubated for 2 hrs followed by PMA addition measured after 48 hrs by gelatin zymographic analysis. In kind it is functional, cell-based.
Experiment [4] relates to THP-1. The experiment is described as follows: Antiinflammatory activity in human THP1 cells assessed as inhibition of PMA-induced COX2 mRNA level preincubated for 2 hrs followed by PMA addition measured after 48 hrs by RT-PCR analysis. In kind it is functional, cell-based.
In experiment [5] the test system is THP-1. The experiment is described as follows: Inhibition of PMA-induced monocyte to macrophage differentiation in human THP1 cells assessed as reduction in MMP2 enzyme activity at 15 uM preincubated for 2 hrs followed by PMA addition measured after 48 hrs by gelatin zymographic analysis. In kind it is functional, cell-based.
Experiment [6] deals with THP-1. The experiment can be described thus: Antiinflammatory activity in human THP1 cells assessed as inhibition of PMA-induced IL-1beta secretion preincubated for 2 hrs followed by PMA addition measured after 48 hrs by ELISA. The experiment is classed as functional, cell-based.
The test system of experiment [7] is THP-1. The experiment is described as follows: Inhibition of PMA-induced MMP9 transcript level in human THP1 cells at 15 uM preincubated for 2 hrs followed by PMA addition measured after 24 hrs by RT-PCR analysis. The experiment is classed as functional, cell-based.
The test system of experiment [8] is THP-1. The experiment can be described thus: Inhibition of PMA-induced monocyte to macrophage differentiation in human THP1 cells assessed as reduction in CD-36 transcript level at 15 uM preincubated for 2 hrs followed by PMA addition measured after 24 hrs by RT-PCR analysis. The experiment is classed as functional, cell-based.
Experiment [9] relates to THP-1. The experiment is described as follows: Inhibition of PMA-induced monocyte to macrophage differentiation in human THP1 cells assessed as reduction in LOX-1 transcript level at 15 uM preincubated for 2 hrs followed by PMA addition measured after 24 hrs by RT-PCR analysis. The experiment is classed as functional, cell-based.
Experiment [10] concerns THP-1. The experiment can be described thus: Antiinflammatory activity in human THP1 cells assessed as inhibition of PMA-induced TNFalpha secretion preincubated for 2 hrs followed by PMA addition measured after 48 hrs by ELISA. In kind it is functional, cell-based.
A short description of experiment [11]: Cytotoxicity against human THP1 cells assessed as cell viability at 20 uM after 48 hrs by tryphan blue dye exclusion assay relative to control. To be noted: THP-1, 48 h, read-out: Activity. The experiment is classed as functional.
The test system of experiment [12] is THP-1. The experiment is described as follows: Inhibition of PMA-induced MMP1 transcript level in human THP1 cells at 15 uM preincubated for 2 hrs followed by PMA addition measured after 24 hrs by RT-PCR analysis. In kind it is functional, cell-based.
The test system of experiment [13] is THP-1. The experiment is described as follows: Inhibition of PMA-induced monocyte/macrophage invasion in human THP1 cells at 15 uM preincubated for 2 hrs followed by PMA addition measured after 48 hrs by collagen-coated Boyden chamber invasion assay. In kind it is functional, cell-based.
In experiment [14] the test system is THP-1. The experiment is described as follows: Inhibition of PMA-induced monocyte to macrophage differentiation in human THP1 cells assessed as reduction in cell adherence at 15 uM preincubated for 2 hrs followed by PMA addition measured after 48 hrs by phase contrast microscopic analysis. The experiment is classed as functional, cell-based.
The nature of experiment [15]: (§2) Antiinflammatory activity in human THP1 cells assessed as inhibition of PMA-induced IL-1beta secretion at 10 uM preincubated for 2 hrs followed by PMA addition measured after 48 hrs by ELISA. The experiment is classed as functional. The following applies: THP-1.
Experiment [16] deals with THP-1. The experiment is described as follows: Inhibition of PMA-induced monocyte to macrophage differentiation in human THP1 cells assessed as reduction in cell size at 15 uM preincubated for 2 hrs followed by PMA addition measured after 48 hrs by mitotracker dye-based confocal microscopic analysis. The experiment is classed as functional.
Experiment [17] in a line: Antiinflammatory activity in human THP1 cells assessed as inhibition of PMA-induced TNFalpha secretion at 10 uM preincubated for 2 hrs followed by PMA addition measured after 48 hrs by ELISA. The experiment is classed as functional. To be noted: THP-1.
Experiment [18] has as its system THP-1. The experiment can be described thus: Antiinflammatory activity in human THP1 cells assessed as inhibition of PMA-induced MCP-1 secretion preincubated for 2 hrs followed by PMA addition measured after 48 hrs by ELISA. In kind it is functional, cell-based.
Experiment [19] concerns THP-1. The description is as §1. The experiment is classed as functional.
Experiment [20] has as its system THP-1. The experiment is described as §2. In kind it is functional.

As for `Cc1ccc(NC(=O)Cn2cc(/C=C/C(=O)C3=C(O)c4ccccc4S(=O)(=O)N3C)nn2)cc1`, the inhibition entry in experiment [1], in experiment [3], in [4], in [7], in [8] and in [9] was “Active” each time. Also, the inhibition entry in experiment [12], in [13], in experiment [14] and in [16] was “Active” throughout. In addition, the inhibition at 10 µM in experiment [2] was 87.2%; in experiment [15], 74.9%; in [17], 84.7%. In addition, the inhibition entry in experiment [5] was “inactive”. Also, the inhibition entry in experiment [6], in [10] and in experiment [18] was “Dose-dependent effect” each time. The viability at 20 µM in [11] was determined as 97%.
Turning to `CN1C(C(=O)/C=C/c2cn(-c3cccc(F)c3)nn2)=C(O)c2ccccc2S1(=O)=O`, the inhibition entry in experiment [19] and in experiment [20] was “inactive” in each case. The viability at 20 µM in [11] worked out at 93%. In addition, in experiment [17], the inhibition at 10 µM was found to be 48.3%.
As for `CN1C(C(=O)/C=C/c2cn(CC(=O)Nc3cccc(C(F)(F)F)c3)nn2)=C(O)c2ccccc2S1(=O)=O`, the inhibition result in experiment [1], in experiment [3], in experiment [4], in experiment [7], in experiment [8] and in [9] was “Active” throughout. The inhibition result in experiment [12], in [13], in [14] and in [16] was “Active” in each case. Further, the inhibition at 10 µM in experiment [2] is 85.1%; in experiment [15], 83.6%; in experiment [17], 87.6%. Besides, the inhibition result in [5] was “inactive”. Besides, the inhibition result in experiment [6], in [10] and in [18] was “Dose-dependent effect” each time. Further, the viability at 20 µM in experiment [11] is 96.2%.
As for `CN1C(C(=O)/C=C/c2cn(CC(=O)Nc3cccc(Cl)c3)nn2)=C(O)c2ccccc2S1(=O)=O`, the inhibition entry in experiment [1], in experiment [3], in [4], in [7], in experiment [8] and in [9] was “Active” throughout. Also, the inhibition result in experiment [12], in experiment [13], in experiment [14] and in [16] was “Active” in each case. For the same compound, the inhibition at 10 µM in experiment [2] came out at 84%; in [15], 80.4%; in experiment [17] it was 91.1%. In addition, in experiment [5], the inhibition entry was “inactive”. Also, the inhibition result in [6], in [10] and in [18] was “Dose-dependent effect” each time. Moreover, in experiment [11], the viability at 20 µM came to 98.2%.
